Structures can show the parent of a compound that is named as a salt.
Target: T1, hDGAT1 (Homo sapiens, UniProt O75907)
T1 construct: made in house; host or cells: Sf9 insect cells (baculovirus); microsomal fraction
T1 sequence (O75907 1-488): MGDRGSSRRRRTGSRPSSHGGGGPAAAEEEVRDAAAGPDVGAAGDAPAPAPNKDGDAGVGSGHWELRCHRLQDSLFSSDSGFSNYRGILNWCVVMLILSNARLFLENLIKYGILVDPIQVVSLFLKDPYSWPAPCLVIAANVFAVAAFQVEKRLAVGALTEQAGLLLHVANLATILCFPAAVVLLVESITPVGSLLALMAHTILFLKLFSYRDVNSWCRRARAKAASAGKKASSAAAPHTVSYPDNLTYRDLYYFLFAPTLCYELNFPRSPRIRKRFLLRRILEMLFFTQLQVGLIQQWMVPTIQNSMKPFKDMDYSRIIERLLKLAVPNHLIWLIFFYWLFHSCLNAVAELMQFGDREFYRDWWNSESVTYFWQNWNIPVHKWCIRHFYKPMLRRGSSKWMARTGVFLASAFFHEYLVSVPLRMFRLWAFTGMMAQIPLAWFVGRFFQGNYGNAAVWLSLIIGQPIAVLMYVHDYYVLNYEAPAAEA
Experiment: In-vitro DGAT1 assay with hDGAT1 microsomes from Sf9 cells (14C oleoyl CoA, scintillation counting)
Format: biochemical
Conditions: for Percentage inhibition of hDGAT1: at 1 μM; for inhibition at 1 µM: read-out: Percentage inhibition of hDGAT1
In short: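 Microsomes from Sf9 cells infected with hDGAT1 baculovirus (MOI 5, harvested ~66-72 h) were incubated with [14C]oleoyl-CoA and 1,2-dioleoyl-sn-glycerol at 37 °C for 10 min, in duplicate. After alkaline ethanol stop, triglycerides were heptane-extracted and counted by liquid scintillation; percent inhibition was plotted against compound concentration (nM).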

SMILES	Percentage inhibition of hDGAT1	inhibition at 1 µM [%]
O=C(Nc1ccc(-c2cnc(CCNS(=O)(=O)C(F)(F)F)s2)cc1)NC1CCCCC1 [Example 528, N-(2-(5-(4-(3-Cyclohexylureido)phenyl)thiazol-2-yl)ethyl)-1,1,1-trifluoro methanesulfonamide]	++ (>50 % Inhibition)	
O=C(Nc1ccc(-c2cnc(CCNS(=O)(=O)C(F)(F)F)s2)cc1)c1ccccc1Cl [Example 529, 2-Chloro-N-(4-(2-(2-(trifluoromethylsulfonamido)ethyl)thiazol-5-yl)phenyl)benzamide]		20 to 50
O=C(Nc1ccc(-c2cnc(CCNS(=O)(=O)C(F)(F)F)s2)cc1)c1nc(-c2ccccc2)oc1C(F)(F)F [Example 533, 2-Phenyl-5-(trifluoromethyl)-N-(4-(2-(2-(trifluoromethylsulfonamido)ethyl)thiazol-5-yl)phenyl)oxazole-4-carboxamide]		> 50
N#CN=C(Nc1ccc(-c2cnc(CCNS(=O)(=O)C(F)(F)F)s2)cc1)Nc1ccccc1F [Example 537, N-(2-(5-(4-(2-Cyano-3-(2-fluorophenyl)guanidino)phenyl)thiazol-2-yl)ethyl)-1,1,1-trifluoromethanesulfonamide]		> 50
O=C(Nc1ccc(-c2cnc(CNS(=O)(=O)C(F)(F)F)s2)cc1)Nc1ccccc1Cl [Example 543, N-((5-(4-(3-(2-Chlorophenyl)ureido)phenyl)thiazol-2-yl)methyl)-1,1,1-trifluoro methanesulfonamide]	++ (>50 % Inhibition)	
O=C(Nc1ccc(-c2cnc(CNS(=O)(=O)C(F)(F)F)s2)cc1)Nc1ccccc1F [Example 544, 1,1,1-Trifluoro-N-((5-(4-(3-(2-fluorophenyl)ureido)phenyl)thiazol-2-yl)methyl)methanesulfonamide]		> 50
O=C(Nc1ccc(-c2cnc(CNS(=O)(=O)C(F)(F)F)s2)cc1)Nc1cc(F)cc(F)c1 [Example 545, N-((5-(4-(3-(3,5-Difluorophenyl)ureido)phenyl)thiazol-2-yl)methyl)-1,1,1-trifluoromethanesulfonamide]		> 50
O=C(Nc1ccc(-c2cnc(CNS(=O)(=O)C(F)(F)F)s2)cc1)Nc1cc(F)c(F)cc1F [Example 546, 1,1,1-Trifluoro-N-((5-(4-(3-(2,4,5-trifluorophenyl)ureido)phenyl)thiazol-2-yl)methyl)methanesulfonamide]		> 50
O=C(Nc1ccc(-c2cnc(CNS(=O)(=O)C(F)(F)F)s2)cc1)Nc1c(F)cc(F)cc1F [Example 547, 1,1,1-Trifluoro-N-((5-(4-(3-(2,4,6-trifluorophenyl)ureido)phenyl)thiazol-2-yl)methyl)methanesulfonamide]		> 50
O=C(Nc1ccc(-c2cnc(CNS(=O)(=O)C(F)(F)F)s2)cc1)NC1CCCCC1 [Example 548, N-((5-(4-(3-Cyclohexylureido)phenyl)thiazol-2-yl)methyl)-1,1,1-trifluoro methanesulfonamide]	++ (>50 % Inhibition)	
O=C(Nc1ccc(-c2cnc(CNS(=O)(=O)C(F)(F)F)s2)cc1)Nc1ccc(C(F)(F)F)cc1 [Example 549, 1,1,1-Trifluoro-N-((5-(4-(3-(4-(trifluoromethyl)phenyl)ureido)phenyl)thiazol-2-yl)methyl)methanesulfonamide]		> 50
O=C(Nc1ccccc1)Nc1ccc(-c2cnc(CNS(=O)(=O)C(F)(F)F)s2)cc1 [Example 550, 1,1,1-Trifluoro-N-((5-(4-(3-phenylureido)phenyl)thiazol-2-yl)methyl)methane sulfonamide]		> 50
O=C(Nc1ccc(-c2cnc(CNS(=O)(=O)C(F)(F)F)s2)cc1)c1ccccc1Cl [Example 551]	+ (20-50% Inhibition)	
O=C(Nc1ccc(-c2cnc(CNS(=O)(=O)C(F)(F)F)s2)cc1)c1ccc(C(F)(F)F)cc1 [Example 552, 4-(Trifluoromethyl)-N-(4-(2-((trifluoromethylsulfonamido)methyl)thiazol-5-yl)phenyl)benzamide]		> 50
O=S(=O)(Nc1ccc(-c2cnc(CNS(=O)(=O)C(F)(F)F)s2)cc1)c1ccccc1 [Example 553, N-(4-(2-((Trifluoromethylsulfonamido)methyl)thiazol-5-yl)phenyl)benzene sulfonamide]		20 to 50
CC(C)(NS(=O)(=O)C(F)(F)F)c1ncc(-c2ccc(NC(=O)Nc3ccccc3Cl)cc2)s1 [Example 562, N-(2-(5-(4-(3-(2-Chlorophenyl)ureido)phenyl)thiazol-2-yl)propan-2-yl)-1,1,1-trifluoromethanesulfonamide]		> 50
CC(C)(NS(=O)(=O)C(F)(F)F)c1ncc(-c2ccc(NC(=O)Nc3ccccc3F)cc2)s1 [Example 563, 1,1,1-Trifluoro-N-(2-(5-(4-(3-(2-fluorophenyl)ureido)phenyl)thiazol-2-yl)propan-2-yl)methanesulfonamide]		> 50
CC(C)(NS(=O)(=O)C(F)(F)F)c1ncc(-c2ccc(NC(=O)Nc3cc(F)cc(F)c3)cc2)s1 [Example 564, N-(2-(5-(4-(3-(3,5-Difluorophenyl)ureido)phenyl)thiazol-2-yl)propan-2-yl)-1,1,1-trifluoromethanesulfonamide]		> 50
CC(C)(NS(=O)(=O)C(F)(F)F)c1ncc(-c2ccc(NC(=O)Nc3cc(F)c(F)cc3F)cc2)s1 [Example 565, 1,1,1-Trifluoro-N-(2-(5-(4-(3-(2,4,5-trifluorophenyl)ureido)phenyl)thiazol-2-yl)propan-2-yl)methanesulfonamide]		> 50
CC(C)(NS(=O)(=O)C(F)(F)F)c1ncc(-c2ccc(NC(=O)Nc3c(F)cc(F)cc3F)cc2)s1 [Example 566, 1,1,1-Trifluoro-N-(2-(5-(4-(3-(2,4,6-trifluorophenyl)ureido)phenyl)thiazol-2-yl)propan-2-yl)methanesulfonamide]		20 to 50
CC(C)(NS(=O)(=O)C(F)(F)F)c1ncc(-c2ccc(NC(=O)NC3CCCCC3)cc2)s1 [Example 567, N-(2-(5-(4-(3-Cyclohexylureido)phenyl)thiazol-2-yl)propan-2-yl)-1,1,1-trifluoromethanesulfonamide]		> 50
CC(C)(NS(=O)(=O)C(F)(F)F)c1ncc(-c2ccc(NS(=O)(=O)c3ccccc3)cc2)s1 [Example 568, N-(4-(2-(2-(Trifluoromethylsulfonamido)propan-2-yl)thiazol-5-yl)phenyl)benzenesulfonamide]		20 to 50
NCCc1ncc(-c2ccc(NC(=O)Nc3cc(F)cc(F)c3)cc2)s1 [Example 574, 1-(4-(2-(2-Aminoethyl)thiazol-5-yl)phenyl)-3-(3,5-difluorophenyl)urea hydrochloride]		20 to 50
NCCc1ncc(-c2ccc(NC(=O)Nc3cc(F)c(F)cc3F)cc2)s1 [Example 575, 1-(4-(2-(2-Aminoethyl)thiazol-5-yl)phenyl)-3-(2,4,5-trifluorophenyl)urea hydrochloride]		20 to 50
CC(C)(CCc1ncc(-c2ccc(NC(=O)Nc3ccccc3Cl)cc2)s1)C(=O)NS(=O)(=O)C(F)(F)F [Example 579, 4-(5-(4-(3-(2-Chlorophenyl)ureido)phenyl)thiazol-2-yl)-2,2-dimethyl-N-((trifluoromethyl)sulfonyl)butanamide]		> 50

From US20130158075A1, “HETEROCYCLIC COMPOUNDS AS DGAT1 INHIBITORS” (PIRAMAL ENTERPRISES LIMITED, priority 2010, published 2013)
